Assay results taken from patent US7157099B2, “Sustained release pharmaceutical compositions for the parenteral administration of hydrophilic compounds” (Italfarmaco S.p.A., priority 2000, dated 2007).

How the values were obtained:
[1] = male rats, 6 mg/rat of microemulsion of Example 11
Experimental: (§1) Plasma samples were taken before the administration of the compound and 0.5 hours, 24 hours, 4, 6 and 8 days after treatment.
(§2) Octreotide was extracted from plasma and analyzed with LC-MS-MS apparatus vs. a calibration curve.

in vivo = conditions: male, rat, plasma, 6 mg/rat
Experimental: as §1, §2

C[C@@H](O)[C@@H]1NC(=O)[C@H](CCCCN)NC(=O)[C@@H](Cc2c[nH]c3ccccc23)NC(=O)[C@H](Cc2ccccc2)NC(=O)[C@@H](NC(=O)[C@H](N)Cc2ccccc2)CSSC[C@@H](C(=O)N[C@H](CO)[C@@H](C)O)NC1=O [Octreotide]
Time until which significant Octreotide plasma levels were found after treatment [1]: 8 days
level at 0.5 h (in vivo): 539 ng/mL
level at 24 h (in vivo): 40.2 ng/mL
level at 96 h (in vivo): 62.5 ng/mL
level at 144 h (in vivo): 4.5 ng/mL
level at 192 h (in vivo): 7.6 ng/mL
